Source: patent publication US20220184072A1 (priority 2019, published 2022)

How the values were obtained:
[1] = morphine 30 mg/kg orally twice per day
[2] = system: TH (tyrosine hydroxylase); assay: CNS phosphoprotein profile, TH; assay type: in vivo; conditions: mice nucleus accumbens; Example 1 3 mg/kg at 30 or 60 minutes; haloperidol 2 mg/kg
Description: A comprehensive molecular phosphorylation study is also carried out to examine the central nervous system (CNS) profile of the compound of Example 1. The extent of protein phosphorylation for selected key central nervous system proteins is measured in mice nucleus accumbens.
Mice were killed 30 minutes to 2 hours post-injection by focused microwave cranial irradiation, which preserves brain phosphoprotein as it exists at the time of death. Nucleus accumbens was then dissected from each mouse brain, sliced and frozen in liquid nitrogen. Samples were further prepared for phosphoprotein analysis via SDS-PAGE electrophoresis followed by phosphoprotein-specific immunoblotting, as described in Zhu H, et al., Brain Res. 2010 Jun. 25; 1342:11-23. Phosphorylation at each site was quantified, normalized to total levels of the protein (non-phosphorylated), and expressed as percent of the level of phosphorylation in vehicle-treated control mice.

Structure (SMILES)	tolerance and dependence [1]	increase in TH phosphorylation at Ser40 [2]
CN1CC[C@]23c4c5ccc(O)c4O[C@H]2[C@@H](O)C=C[C@H]3[C@H]1C5 [Morphine]	clear signs of tolerance and dependence	–
O=C(CCCN1CCC(O)(c2ccc(Cl)cc2)CC1)c1ccc(F)cc1 [haloperidol]	–	greater than 400%
Cc1nc2n(c(=O)c1CCN1CCC(c3noc4cc(F)ccc34)CC1)CCCC2 [risperidone]	–	greater than 500%
